Reference: article PMC11956013, “Structure–Activity Relationships and Evaluation of 2-(Heteroaryl-cycloalkyl)-1H-indoles as Tauopathy Positron Emission Tomography Radiotracers” (Journal of Medicinal Chemistry, 2025)

Tests used:
[1] = target: alpha2B (h) (Homo sapiens, UniProt P18089)
[2] = target: N neuronal alpha4beta2 (h) (Homo sapiens, UniProt P17787+P43681); settings: compound concentration 1.0E-05 M
[3] = target: T1, PDE4D2 (h) (Homo sapiens, UniProt Q08499); test: Eurofins panel: PDE4D2 (h); type: biochemical; settings: compound concentration 1.0E-05 M
T1 construct: purchased Eurofins (CNS SafetyScreen panel, contract assay)

[4] = target: Y1 (h) (Homo sapiens, UniProt P25929); settings: compound concentration 1.0E-05 M
[5] = target: 5-HT7 (h) (Homo sapiens, UniProt P34969); settings: 1.0E-05 M; 5-HT7 (h) (agonist radioligand)
[6] = target: D4.4 (h) (Homo sapiens, UniProt P21917); test: biochemical
[7] = test system: 98 CNS protein targets; test: Eurofins CNS SafetyScreen panel at 10 μM; type: binding; settings: 10-μM concentration
[8] = test system: sigma (non-selective) (h); settings: compound concentration 1.0E-05 M
[9] = target: H3 (h) (Homo sapiens, UniProt Q9Y5N1); test: biochemical
[10] = target: D3 (h) (Homo sapiens, UniProt P35462); test: D3 (h) (antagonist radioligand), Eurofins assay 48
[11] = target: A2A (h) (Homo sapiens, UniProt P29274); settings: 1.0E-05 M; A2A (h) (agonist radioligand)
[12] = target: M3 (h) (Homo sapiens, UniProt P20309); test: biochemical
[13] = target: JNK1 (h) (Homo sapiens, UniProt P45983); settings: Enzymatic activity; 1.0E-05 M
[14] = target: EGFR kinase (h) (Homo sapiens, UniProt P00533); settings: Enzymatic activity; 1.0E-05 M
[15] = target: Oxytocin (h) (Homo sapiens, UniProt P30559); settings: compound concentration 1.0E-05 M
[16] = target: A1 (h) (Homo sapiens, UniProt P30542); settings: 1.0E-05 M; A1 (h) (antagonist radioligand)
[17] = target: CYP1A2 (Homo sapiens, UniProt P05177); test: in vitro; settings: human liver microsomes, probe tacrine
[18] = test system: TNF-alpha (h); settings: compound concentration 1.0E-05 M
[19] = target: 5-HT transporter (h) (Homo sapiens, UniProt P31645); test: Eurofins panel: 5-HT transporter (h) (antagonist radioligand); settings: 1.0E-05 M
[20] = test system: SKCa channel; settings: compound concentration 1.0E-05 M
[21] = target: 5-HT3 (h) (Homo sapiens, UniProt P46098); settings: 1.0E-05 M; 5-HT3 (h) (antagonist radioligand)
[22] = target: T2, cathepsin B (h) (Homo sapiens, UniProt P07858); test: Eurofins panel: cathepsin B (h) enzymatic activity; type: biochemical; settings: 1.0E-05 M; cathepsin B (h)
T2 construct: Eurofins (panel run by the vendor)

[23] = target: A2B (h) (Homo sapiens, UniProt P29275); test: Eurofins panel: A2B (h) (antagonist radioligand); settings: 1.0E-05 M
[24] = test system: Ca2+ channel (N); type: binding
[25] = target: alpha2A (h) (Homo sapiens, UniProt P08913); settings: 1.0E-05 M; alpha2A (h) (antagonist radioligand)
[26] = target: GABAA1 (h) (alpha1,beta2,gamma2) (Homo sapiens, UniProt P14867+P47870); test: GABAA1 (h) (alpha1,beta2,gamma2) (agonist radioligand), Eurofins assay 3051
[27] = target: human monoamine oxidase-B (MAO-B) (Homo sapiens, UniProt P27338); test: biochemical
[28] = target: B2 (h) (Homo sapiens, UniProt P30411); settings: 1.0E-05 M; B2 (h) (agonist radioligand)
[29] = target: acetylcholinesterase (h) (Homo sapiens, UniProt P22303)
[30] = target: T3, GABAB(B1b/B2) Human GABA B GPCR (Homo sapiens, UniProt Q9UBS5); test: GABAB(B1b/B2) Human GABA B GPCR Mass Spectrometry Binding (Antagonist Ligand) Assay, Cerep, assay 4699
T3 construct: Eurofins (Cerep) assay 4699

[31] = target: CGRP (h) (Homo sapiens, UniProt O60894+Q16602); test: biochemical
[32] = target: A3 (h) (Homo sapiens, UniProt P0DMS8); settings: 1.0E-05 M; A3 (h) (agonist radioligand)
[33] = target: delta (DOP) (h) (Homo sapiens, UniProt P41143); test: biochemical
[34] = test system: AMPA; test: Eurofins panel: AMPA (agonist radioligand); type: binding; settings: 1.0E-05 M; AMPA (agonist radioligand)
[35] = target: T4, Glutamate (Non-Selective) Rat Ion Channel Glycine (Strychnine-Insensitive) (Rattus norvegicus, UniProt P35439); test: Glutamate (Non-Selective) Rat Ion Channel Glycine (Strychnine-Insensitive), Mass Spectrometry Binding, assay 5043
T4 construct: Eurofins assay 5043

[36] = target: GABAA (alpha1/beta2/gamma2) Human Ion Channel, Picrotoxinin site (Homo sapiens, UniProt P14867+P18507+P47870); test: biochemical; type: binding

Sequence of alpha2B (h) (P18089 whole entry): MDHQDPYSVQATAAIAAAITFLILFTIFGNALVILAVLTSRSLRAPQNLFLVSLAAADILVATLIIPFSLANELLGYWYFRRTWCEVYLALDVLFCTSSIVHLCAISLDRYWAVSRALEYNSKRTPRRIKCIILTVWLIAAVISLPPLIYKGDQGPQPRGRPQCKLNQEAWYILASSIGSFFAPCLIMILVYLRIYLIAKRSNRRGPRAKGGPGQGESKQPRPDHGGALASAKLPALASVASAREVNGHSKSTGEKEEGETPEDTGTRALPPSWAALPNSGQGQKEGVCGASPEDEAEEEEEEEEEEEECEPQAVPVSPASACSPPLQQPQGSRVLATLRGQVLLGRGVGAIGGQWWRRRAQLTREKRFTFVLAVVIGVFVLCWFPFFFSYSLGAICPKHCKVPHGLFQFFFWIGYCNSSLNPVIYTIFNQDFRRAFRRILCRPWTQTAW
Sequence of CGRP (h) (Q16602 23-461): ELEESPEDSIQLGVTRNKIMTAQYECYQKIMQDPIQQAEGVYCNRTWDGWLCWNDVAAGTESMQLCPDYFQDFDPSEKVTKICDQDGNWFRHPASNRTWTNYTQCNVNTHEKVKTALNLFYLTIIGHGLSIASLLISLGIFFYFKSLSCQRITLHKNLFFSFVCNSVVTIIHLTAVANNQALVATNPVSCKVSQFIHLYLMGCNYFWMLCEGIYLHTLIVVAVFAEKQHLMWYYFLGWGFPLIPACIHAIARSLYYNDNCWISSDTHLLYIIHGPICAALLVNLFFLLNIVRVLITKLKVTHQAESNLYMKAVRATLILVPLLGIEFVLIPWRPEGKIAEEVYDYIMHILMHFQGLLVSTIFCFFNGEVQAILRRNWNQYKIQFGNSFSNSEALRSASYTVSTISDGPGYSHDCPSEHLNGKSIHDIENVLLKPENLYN
Sequence of CGRP (h) (O60894 27-148): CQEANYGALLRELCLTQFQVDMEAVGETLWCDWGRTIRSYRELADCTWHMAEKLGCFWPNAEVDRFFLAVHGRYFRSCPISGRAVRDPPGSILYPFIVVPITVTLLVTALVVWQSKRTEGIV
Sequence of Oxytocin (h) (P30559 whole entry): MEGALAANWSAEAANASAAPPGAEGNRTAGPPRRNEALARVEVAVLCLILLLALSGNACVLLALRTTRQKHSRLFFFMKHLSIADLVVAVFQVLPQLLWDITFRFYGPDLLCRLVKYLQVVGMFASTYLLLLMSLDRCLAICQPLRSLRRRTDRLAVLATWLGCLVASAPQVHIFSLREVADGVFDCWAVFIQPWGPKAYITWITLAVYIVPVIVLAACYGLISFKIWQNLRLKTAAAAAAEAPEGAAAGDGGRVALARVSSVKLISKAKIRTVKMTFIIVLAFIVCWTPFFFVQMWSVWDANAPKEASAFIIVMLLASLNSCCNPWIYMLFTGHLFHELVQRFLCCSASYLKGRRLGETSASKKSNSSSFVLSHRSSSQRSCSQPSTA
Sequence of B2 (h) (P30411 whole entry): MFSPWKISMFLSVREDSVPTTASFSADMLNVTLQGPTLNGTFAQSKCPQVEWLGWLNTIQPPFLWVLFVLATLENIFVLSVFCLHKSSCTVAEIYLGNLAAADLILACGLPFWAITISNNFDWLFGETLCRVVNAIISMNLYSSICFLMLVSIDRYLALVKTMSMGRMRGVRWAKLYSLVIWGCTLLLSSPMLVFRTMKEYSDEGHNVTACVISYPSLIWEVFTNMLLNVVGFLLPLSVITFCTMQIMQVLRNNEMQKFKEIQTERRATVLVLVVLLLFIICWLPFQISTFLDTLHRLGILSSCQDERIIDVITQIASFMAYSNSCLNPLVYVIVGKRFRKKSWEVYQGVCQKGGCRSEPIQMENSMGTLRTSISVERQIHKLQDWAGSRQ
Sequence of A1 (h) (P30542 whole entry): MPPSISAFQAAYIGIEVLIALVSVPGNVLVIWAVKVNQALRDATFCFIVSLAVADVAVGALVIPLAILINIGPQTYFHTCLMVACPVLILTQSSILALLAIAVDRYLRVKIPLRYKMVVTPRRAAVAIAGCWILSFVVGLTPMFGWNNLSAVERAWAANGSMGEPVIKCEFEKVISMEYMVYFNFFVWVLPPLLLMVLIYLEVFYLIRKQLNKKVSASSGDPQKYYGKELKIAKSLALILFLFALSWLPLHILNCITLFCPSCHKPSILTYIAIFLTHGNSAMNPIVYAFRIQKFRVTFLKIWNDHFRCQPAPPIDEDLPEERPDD
T3 sequence (Q9UBS5 1-844 isoform Q9UBS5-2): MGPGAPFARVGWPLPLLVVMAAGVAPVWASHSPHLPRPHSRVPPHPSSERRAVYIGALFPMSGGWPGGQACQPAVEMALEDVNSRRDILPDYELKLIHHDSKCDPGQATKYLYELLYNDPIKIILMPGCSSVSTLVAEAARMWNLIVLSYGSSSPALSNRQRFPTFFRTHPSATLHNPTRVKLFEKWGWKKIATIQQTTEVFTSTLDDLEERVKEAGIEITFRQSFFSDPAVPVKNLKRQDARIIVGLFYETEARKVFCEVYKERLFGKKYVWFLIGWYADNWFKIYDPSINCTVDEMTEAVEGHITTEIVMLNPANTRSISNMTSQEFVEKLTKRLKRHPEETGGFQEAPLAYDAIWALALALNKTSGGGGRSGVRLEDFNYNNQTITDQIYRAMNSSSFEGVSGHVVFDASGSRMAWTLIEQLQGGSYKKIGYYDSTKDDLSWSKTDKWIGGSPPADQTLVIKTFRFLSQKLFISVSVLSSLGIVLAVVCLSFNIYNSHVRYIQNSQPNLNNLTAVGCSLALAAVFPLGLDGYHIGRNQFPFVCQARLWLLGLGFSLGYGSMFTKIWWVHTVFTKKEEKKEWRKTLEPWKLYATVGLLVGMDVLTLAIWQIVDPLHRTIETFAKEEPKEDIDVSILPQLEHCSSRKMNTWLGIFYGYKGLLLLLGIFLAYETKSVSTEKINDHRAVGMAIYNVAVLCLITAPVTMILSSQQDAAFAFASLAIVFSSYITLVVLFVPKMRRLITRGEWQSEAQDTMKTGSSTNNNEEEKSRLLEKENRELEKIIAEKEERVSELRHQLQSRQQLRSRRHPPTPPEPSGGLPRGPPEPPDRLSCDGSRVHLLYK
T3 sequence (O75899 42-941 partner): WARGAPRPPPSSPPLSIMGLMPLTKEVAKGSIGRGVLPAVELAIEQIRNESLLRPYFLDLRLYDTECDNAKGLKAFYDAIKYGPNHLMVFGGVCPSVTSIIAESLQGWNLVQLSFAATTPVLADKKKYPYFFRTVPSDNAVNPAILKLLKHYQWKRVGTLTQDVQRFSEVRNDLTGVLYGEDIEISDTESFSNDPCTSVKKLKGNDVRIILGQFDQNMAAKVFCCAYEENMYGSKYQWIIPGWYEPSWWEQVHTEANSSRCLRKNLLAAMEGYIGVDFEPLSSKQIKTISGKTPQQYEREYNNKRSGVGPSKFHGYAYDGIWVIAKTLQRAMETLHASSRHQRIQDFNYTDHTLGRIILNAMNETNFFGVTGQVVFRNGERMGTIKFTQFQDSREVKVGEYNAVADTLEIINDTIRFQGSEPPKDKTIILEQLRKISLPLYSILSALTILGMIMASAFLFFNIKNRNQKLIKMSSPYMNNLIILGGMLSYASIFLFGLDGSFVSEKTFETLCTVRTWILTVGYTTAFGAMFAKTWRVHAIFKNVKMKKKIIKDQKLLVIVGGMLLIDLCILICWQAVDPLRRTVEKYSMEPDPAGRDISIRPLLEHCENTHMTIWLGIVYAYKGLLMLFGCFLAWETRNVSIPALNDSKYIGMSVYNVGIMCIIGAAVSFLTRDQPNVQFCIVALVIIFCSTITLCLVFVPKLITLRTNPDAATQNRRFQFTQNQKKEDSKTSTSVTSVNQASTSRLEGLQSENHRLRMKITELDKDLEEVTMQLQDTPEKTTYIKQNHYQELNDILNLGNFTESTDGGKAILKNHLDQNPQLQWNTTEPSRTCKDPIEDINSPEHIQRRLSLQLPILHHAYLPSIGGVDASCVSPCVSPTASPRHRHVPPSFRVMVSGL
Sequence of H3 (h) (Q9Y5N1 whole entry): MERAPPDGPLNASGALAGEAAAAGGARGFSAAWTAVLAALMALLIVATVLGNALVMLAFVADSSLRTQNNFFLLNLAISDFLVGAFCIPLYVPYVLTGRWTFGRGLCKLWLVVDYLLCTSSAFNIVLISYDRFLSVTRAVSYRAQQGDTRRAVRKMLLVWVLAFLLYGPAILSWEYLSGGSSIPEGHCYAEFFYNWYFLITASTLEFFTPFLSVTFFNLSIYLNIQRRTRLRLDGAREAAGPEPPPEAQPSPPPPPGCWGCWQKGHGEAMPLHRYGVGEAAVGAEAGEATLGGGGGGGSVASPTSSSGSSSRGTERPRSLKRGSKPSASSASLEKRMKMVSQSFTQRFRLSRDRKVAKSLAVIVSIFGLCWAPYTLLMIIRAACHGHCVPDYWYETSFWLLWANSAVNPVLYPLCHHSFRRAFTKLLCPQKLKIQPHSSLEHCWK
Sequence of CYP1A2 (P05177 whole entry): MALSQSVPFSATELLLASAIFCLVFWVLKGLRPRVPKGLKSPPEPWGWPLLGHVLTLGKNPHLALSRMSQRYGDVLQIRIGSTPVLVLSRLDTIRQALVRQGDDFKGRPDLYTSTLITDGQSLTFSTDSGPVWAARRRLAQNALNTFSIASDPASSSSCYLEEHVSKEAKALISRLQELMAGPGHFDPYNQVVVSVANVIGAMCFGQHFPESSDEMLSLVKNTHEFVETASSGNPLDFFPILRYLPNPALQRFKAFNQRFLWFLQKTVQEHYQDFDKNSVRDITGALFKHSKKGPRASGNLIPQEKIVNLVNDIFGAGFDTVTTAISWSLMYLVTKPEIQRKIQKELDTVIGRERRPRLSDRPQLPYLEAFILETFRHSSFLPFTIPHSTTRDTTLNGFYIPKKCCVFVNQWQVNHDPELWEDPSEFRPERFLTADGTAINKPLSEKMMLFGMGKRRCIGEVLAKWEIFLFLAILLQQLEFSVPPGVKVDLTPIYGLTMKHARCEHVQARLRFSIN

Fc1nc(N2CCOCC2)ccc1-c1cc2ccccc2[nH]1 [Compound 75, 4-(6-Fluoro-5-(1H-indol-2-yl)pyridin-2-yl)morpholine] was tested, and the “% Inhibition, Specific binding” value [1] was 2.179%, the “% Inhibition, Specific binding” value [2] was -8.72E+00% and the “% Inhibition, Enzymatic activity” value [3] was -7.60E+00%. For the same compound, the “% Inhibition, Specific binding” value [4] was -2.40E+01%, the “% Inhibition, Specific binding” value [5] was -1.16E+00% and the inhibition at 10 µM [6] was 20.4%. For the same compound, the “inhibition at 96 of 98 CNS targets” value [7] was no more than 25.3%, the “% Inhibition, Specific binding” value [8] was -4.77E+00% and the inhibition at 10 µM [9] was -4.9%. For the same compound, the inhibition at 10 µM [10] was -5.9%, the “% Inhibition, Specific binding” value [11] was 6.474% and the inhibition at 10 µM [12] was -12.5%. The “% Inhibition” value [13] was -3.56E-01%, the “% Inhibition” value [14] was 16.5474% and the “% Inhibition, Specific binding” value [15] was 25.3038%. The “% Inhibition, Specific binding” value [16] was -7.64E+00%, the inhibition at 10 µM [17] was -10.4% and the “% Inhibition, Specific binding” value [18] was 0.1083%. For the same compound, the “% Inhibition, Specific binding” value [19] was -9.53E+00%, the “% Inhibition, Specific binding” value [20] was 0.9001% and the “% Inhibition, Specific binding” value [21] was 0.4312%. The “% Inhibition, Enzymatic activity” value [22] was -8.47E+00%, the “% Inhibition, Specific binding” value [23] was -1.19E+01% and the “% Inhibition, Specific binding” value [24] was -3.62E+00%. The “% Inhibition, Specific binding” value [25] was -8.25E+00%, the inhibition at 10 µM [26] was 7.7% and the inhibition at 10 µM [27] was 61%. The “% Inhibition, Specific binding” value [28] was -1.15E+01%, the “% Inhibition, Enzymatic activity” value [29] was 1.77% and the inhibition at 10 µM [30] was 18.1%. The inhibition at 10 µM [31] was -5.83%, the “% Inhibition, Specific binding” value [32] was 5.821% and the inhibition at 10 µM [33] was -13.7%. The “% Inhibition, Specific binding” value [34] was 4.317%, the inhibition at 10 µM [35] was 3.36% and the inhibition at 10 µM [36] was 8.53%.
